Assay results reported in patent publication US12559529B2, “NPY2 receptor agonists” (Boehringer Ingelheim International GmbH, priority 2019, dated 2026).

Key:
human NPY1 receptor = target: T1, human NPY1 receptor (Homo sapiens, UniProt P25929); test: HTRF cAMP Gi assay, hY1R; format: cell-based; conditions: Table 4; CHO-K1 cells
T1 construct: expressed in transfected cells; host or cells: CHO-K1
T1 sequence (P25929 1-384): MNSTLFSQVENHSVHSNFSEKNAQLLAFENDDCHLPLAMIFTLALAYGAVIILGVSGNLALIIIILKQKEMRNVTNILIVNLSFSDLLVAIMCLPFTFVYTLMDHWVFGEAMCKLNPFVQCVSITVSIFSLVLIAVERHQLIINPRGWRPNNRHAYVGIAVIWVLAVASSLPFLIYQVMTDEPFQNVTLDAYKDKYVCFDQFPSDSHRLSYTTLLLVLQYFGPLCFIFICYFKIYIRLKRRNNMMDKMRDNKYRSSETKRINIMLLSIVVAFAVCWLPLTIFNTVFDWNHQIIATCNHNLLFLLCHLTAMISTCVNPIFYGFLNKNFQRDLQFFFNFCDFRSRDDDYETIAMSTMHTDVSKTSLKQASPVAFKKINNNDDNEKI
Procedure: (§1) Briefly, the production of intracellular cAMP will generate a competition between unlabeled cAMP and exogenously added d2-cAMP for anti-cAMP antibodies conjugated to cryptate. CHO-K1 cells stably expressing the human NPY1, NPY2, NPY4 and NPY5 receptors were used with the cells brought to life from a frozen stock immediately before assay performance. 2000 cells per well were applied for all four NPY receptor subtype assays. A 384-well format was used applying a total volume of 20 μl using 5 μl cells, 2.5 μl peptide agonist, 2.5 μl forskolin and 5 μl of each of the fluorophores. […] Concentration-response evaluation of compounds was performed with 11 concentrations of agonist peptides (covering 3 decades). EC50 values were calculated by nonlinear regression using sigmoid concentration-response with variable slope.

[1] = target: T2, Human Neuropeptide Y2 Receptor (Homo sapiens, UniProt P49146); test: Activity (RLB) after incubation in solutions at different pH values; format: binding; conditions: apparent Ki of filtrate after 2 h in buffer
T2 construct: purchased CHEMICON HTS066M
T2 sequence (P49146 1-381): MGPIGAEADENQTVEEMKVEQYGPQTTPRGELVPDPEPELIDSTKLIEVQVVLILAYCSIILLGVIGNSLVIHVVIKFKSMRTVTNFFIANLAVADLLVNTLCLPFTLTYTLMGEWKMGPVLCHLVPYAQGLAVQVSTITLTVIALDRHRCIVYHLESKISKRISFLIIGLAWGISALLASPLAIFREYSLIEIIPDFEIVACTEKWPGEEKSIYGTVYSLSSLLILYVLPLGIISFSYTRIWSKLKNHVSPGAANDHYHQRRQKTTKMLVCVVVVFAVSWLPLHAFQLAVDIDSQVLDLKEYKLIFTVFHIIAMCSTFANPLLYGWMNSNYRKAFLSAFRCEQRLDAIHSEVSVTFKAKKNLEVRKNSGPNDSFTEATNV
Procedure: The filtration RLB assay was carried out in 96-well plates in a final volume of 100 μl per well. Freeze-dried test peptides were dissolved in 100% dimethyl sulfoxide (DMSO) to stock solutions of 1 mM and serial dilutions were performed in assay buffer (50 mM HEPES, 5 mM MgCl2, 1 mM CaCl2), pH 7.4) containing 0.2% ovalbumin. […] Next, 80 μL membranes (HTS066M, ChemiSCREEN™ Human Neuropeptide Y2 Receptor Membrane Preparation, CHEMICON) were added to each well to give a final protein concentration of 0.5 μg/well. The plates were sealed and incubated at room temperature for 2 hours in a plate shaker set at 400 rpm. The incubation was stopped by vacuum filtration onto 0.5% poly-ethylene amine (PEI) presoaked GF/C filters using a 96-well FilterMate™ harvester (Perkin Elmer) followed by four washes with 300 μl/well ice-cold wash buffer (50 mM HEPES, 500 mM NaCl, pH7.4). Filter plates were then dried for 60 min at room temperature and the bottom of the plates was sealed with backing tape UniFilter-96. Finally, 50 μl/well scintillation counter cocktail (Microscint20, Packard) was added and the radioactivity was counted in the Packard TopCount NXT scintillation counter. IC50 values (the half maximal inhibitory concentration of the agonist) were calculated by nonlinear regression analysis of sigmoidal dose-response curves.
Peptides (as TFA salts) were weighed out in a filter unit (Mini-UniPrep Syringeless Filter 0.45 μm, Whatman), and 0.1 M sodium diphosphate buffer at pH 6.4 or 7.4, respectively, or 0.2 M TRIS buffer at pH 8.3 was added to achieve 10 mg/ml final concentration. The peptide was (partially) dissolved by shaking the filter unit horizontally at approx. 400 rpm for 2 hours at room temperature. The sample was filtered to remove any insoluble particles.

human NPY5 receptor = target: T3, human NPY5 receptor (Homo sapiens, UniProt Q15761); test: HTRF cAMP Gi assay, hY5R
T3 sequence (Q15761 1-445): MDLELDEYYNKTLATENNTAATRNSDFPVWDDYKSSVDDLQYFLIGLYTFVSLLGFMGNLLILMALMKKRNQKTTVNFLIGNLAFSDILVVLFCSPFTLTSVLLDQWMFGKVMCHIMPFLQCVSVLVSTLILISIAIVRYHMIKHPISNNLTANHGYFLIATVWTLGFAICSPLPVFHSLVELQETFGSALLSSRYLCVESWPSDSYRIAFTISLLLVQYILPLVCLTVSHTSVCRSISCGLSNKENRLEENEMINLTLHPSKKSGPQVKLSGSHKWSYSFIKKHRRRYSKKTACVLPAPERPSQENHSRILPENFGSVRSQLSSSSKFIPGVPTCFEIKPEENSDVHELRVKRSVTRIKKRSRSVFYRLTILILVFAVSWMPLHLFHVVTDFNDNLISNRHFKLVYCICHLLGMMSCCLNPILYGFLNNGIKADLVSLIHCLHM
Description: The Homogenous Time Resolved fluorescence (HTRF) technology optimized for Gi coupled receptors has thoroughly been described in Cisbio cAMP Gi kit manual. Briefly, the production of intracellular cAMP will generate a competition between unlabeled cAMP and exogenously added d2-cAMP for anti-cAMP antibodies conjugated to cryptate. CHO-K1 cells stably expressing the human NPY1, NPY2, NPY4 and NPY5 receptors were used with the cells brought to life from a frozen stock immediately before assay performance. 2000 cells per well were applied for all four NPY receptor subtype assays. A 384-well format was used applying a total volume of 20 μl using 5 μl cells, 2.5 μl peptide agonist, 2.5 μl forskolin and 5 μl of each of the fluorophores. […] Concentration-response evaluation of compounds was performed with 11 concentrations of agonist peptides (covering 3 decades). EC50 values were calculated by nonlinear regression using sigmoid concentration-response with variable slope.

human NPY4 receptor = target: T4, human NPY4 receptor (Homo sapiens, UniProt P50391); test: HTRF cAMP Gi assay, hY4R; format: cell-based; conditions: Table 4; CHO-K1 cells
T4 construct: expressed in transfected cells; host or cells: CHO-K1
T4 sequence (P50391 whole entry): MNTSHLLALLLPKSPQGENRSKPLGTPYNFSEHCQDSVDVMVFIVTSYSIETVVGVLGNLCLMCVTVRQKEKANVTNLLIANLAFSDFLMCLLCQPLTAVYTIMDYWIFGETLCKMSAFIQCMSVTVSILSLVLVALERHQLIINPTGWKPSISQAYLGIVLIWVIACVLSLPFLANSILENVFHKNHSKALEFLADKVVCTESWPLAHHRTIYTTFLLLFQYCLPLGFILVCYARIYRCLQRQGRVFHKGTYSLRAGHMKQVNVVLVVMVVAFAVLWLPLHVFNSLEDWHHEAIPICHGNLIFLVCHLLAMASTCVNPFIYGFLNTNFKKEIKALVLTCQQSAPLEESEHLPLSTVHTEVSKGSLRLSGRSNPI

[2] = target: T2, Human Neuropeptide Y2 Receptor; test: Radioligand binding competition assay (RLB)
Outline: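 Filtration format; Y2R membrane prep 0.5 μg/well; buffer 50 mM HEPES/5 mM MgCl2/1 mM CaCl2/0.2% ovalbumin pH 7.4; 2 h RT, shaking. Harvest on PEI-soaked GF/C, ice-cold HEPES/500 mM NaCl washes, scintillation count. IC50 by nonlinear fit.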

human NPY2 receptor = target: T5, human NPY2 receptor (Homo sapiens, UniProt P49146); test: HTRF cAMP Gi assay, hY2R
T5 sequence (P49146 1-381): T2 sequence (P49146 1-381)
Procedure: as §1

[3] = pH6.1-6.2, assumed 10 mg/ml, read-out: RLB 6 (pH6.1-6.2)
[4] = Table 3, human 125I-PYY (1-36) 0.02 nM, Y2 receptor membranes, read-out: Ki

| SMILES | EC50 (human NPY1 receptor) [nM] | Ki [1, 3] [nM] | EC50 (human NPY5 receptor) [nM] | EC50 (human NPY4 receptor) [nM] | Ki [2, 4] [nM] | Ki ([2]; Table 8, from DMSO stock, read-out: hY2R RLB Ki (nM) DMSO) [nM] | Ki ([1]; pH7.1-7.2, assumed 10 mg/ml, read-out: RLB 7 (pH7.1-7.2)) [nM] | EC50 (human NPY2 receptor) [nM] |
| --- | --- | --- | --- | --- | --- | --- | --- | --- |
| CC[C@H](C)[C@H](NC(=O)[C@H](CCC(=O)O)NC(=O)[C@H](CCC(=O)O)NC(=O)[C@@H]1CCCN1C(=O)[C@@H](NC(=O)[C@H](C)NC(=O)[C@H](CC(=O)O)NC(=O)[C@H](CCC(=O)O)NC(=O)[C@H](CCC(=O)O)NC(=O)[C@@H]1CCCN1C(=O)[C@H](CCCCNC(=O)COCCOCCNC(=O)COCCOCCNC(=O)CC[C@H](NC(=O)CCCCCCCCCCCCCCCCC(=O)O)C(=O)O)NC(=O)[C@H](CCC(=O)O)NC(=O)[C@@H]1CCCN1C(=O)[C@H](C)NC(=O)CC(C)C)[C@@H](C)O)C(=O)N[C@@H](CCC(N)=O)C(=O)N[C@@H](CCCNC(=N)N)C(=O)N[C@@H](Cc1ccc(O)cc1)C(=O)N[C@@H](Cc1ccc(O)cc1)C(=O)N[C@H](C(=O)N[C@@H](CO)C(=O)N[C@@H](CC(C)C)C(=O)N[C@@H](CCCNC(=N)N)C(=O)N[C@@H](Cc1c[nH]cn1)C(=O)N[C@@H](Cc1ccc(O)cc1)C(=O)N[C@@H](Cc1ccc(O)cc1)C(=O)N[C@@H](CC(N)=O)C(=O)N[C@@H](Cc1c[nH]c2ccccc12)C(=O)N[C@@H](CC(C)C)C(=O)N[C@H](C(=O)N[C@@H](CCCNC(=N)N)C(=O)N[C@@H](CCC(N)=O)C(=O)N[C@@H](CCCNC(=N)N)C(=O)N[C@@H](Cc1ccc(O)cc1)C(N)=O)[C@@H](C)O)C(C)C [Compound 171, N{alpha-4}-(3-methylbutanoyl)-N{epsilon-7}-[2-(2-{2-[2-(2-{2-[(4S)-4-carboxy-4-(17-carboxyheptadecanamido)butanamido]ethoxy}ethoxy)acetamido]ethoxy}ethoxy)acetamido]-[4A,7K,9E,13T,17I,18Q,22V,28Y,30W,31L]hPYY (4-36)] | > 5000 | 3 | > 5000 | > 5000 |  |  |  |  |
| CC(C)CC(=O)N[C@@H](C)C(=O)N1CCC[C@H]1C(=O)N[C@@H](C)C(=O)N[C@@H](CCCCNC(=O)COCCOCCNC(=O)COCCOCCNC(=O)CC[C@H](NC(=O)CCCCCCCCCCCCCCCCC(=O)O)C(=O)O)C(=O)N1CCC[C@H]1C(=O)N[C@@H](CCC(=O)O)C(=O)N[C@@H](CCC(=O)O)C(=O)N[C@@H](CC(=O)O)C(=O)N[C@@H](C)C(=O)N[C@@H](CO)C(=O)N1CCC[C@H]1C(=O)N[C@@H](CCC(=O)O)C(=O)N[C@@H](CCC(=O)O)C(=O)N[C@@H](CC(C)C)C(=O)N[C@@H](CCC(N)=O)C(=O)N[C@@H](CCCNC(=N)N)C(=O)N[C@@H](Cc1ccc(O)cc1)C(=O)N[C@@H](Cc1ccc(O)cc1)C(=O)N[C@H](C(=O)N[C@@H](CO)C(=O)N[C@@H](CC(C)C)C(=O)N[C@@H](CCCNC(=N)N)C(=O)N[C@@H](Cc1c[nH]cn1)C(=O)N[C@@H](Cc1ccc(O)cc1)C(=O)N[C@@H](Cc1ccc(O)cc1)C(=O)N[C@@H](CC(N)=O)C(=O)N[C@@H](Cc1c[nH]c2ccccc12)C(=O)N[C@@H](CC(C)C)C(=O)N[C@H](C(=O)N[C@@H](CCCNC(=N)N)C(=O)N[C@@H](CCC(N)=O)C(=O)N[C@@H](CCCNC(=N)N)C(=O)N[C@@H](Cc1ccc(O)cc1)C(N)=O)[C@@H](C)O)C(C)C [Compound 203, N{alpha-4}-(3-methylbutanoyl)-N{epsilon-7}-[2-(2-{2-[2-(2-{2-[(4S)-4-carboxy-4-(17-carboxyheptadecanamido)butanamido]ethoxy}ethoxy)acetamido]ethoxy}ethoxy)acetamido]-[4A,6A,7K,9E,18Q,22V,28Y,30W,31L]hPYY (4-36)] |  | 4.6 |  |  | 0.75 | 3 | 11.1 |  |
| CC(C)CC(=O)N[C@@H](C)C(=O)N1CCC[C@H]1C(=O)N[C@@H](CCC(=O)O)C(=O)N[C@@H](CCCCNC(=O)COCCOCCNC(=O)COCCOCCNC(=O)CC[C@H](NC(=O)CCCCCCCCCCCCCCCCC(=O)O)C(=O)O)C(=O)N1CCC[C@H]1C(=O)N[C@@H](CCC(=O)O)C(=O)N[C@@H](CCC(=O)O)C(=O)N[C@@H](CC(=O)O)C(=O)N[C@@H](C)C(=O)N[C@H](C(=O)N1CCC[C@H]1C(=O)N[C@@H](CCC(=O)O)C(=O)N[C@@H](CCC(=O)O)C(=O)N[C@@H](CC(C)C)C(=O)N[C@@H](CCC(N)=O)C(=O)N[C@@H](CCCCN)C(=O)N[C@@H](Cc1ccc(O)cc1)C(=O)N[C@@H](Cc1ccc(O)cc1)C(=O)N[C@H](C(=O)N[C@@H](CO)C(=O)N[C@@H](CC(C)C)C(=O)N[C@@H](CCCNC(=N)N)C(=O)N[C@@H](Cc1c[nH]cn1)C(=O)N[C@@H](Cc1ccc(O)cc1)C(=O)N[C@@H](Cc1ccc(O)cc1)C(=O)N[C@@H](CC(N)=O)C(=O)N[C@@H](Cc1c[nH]c2ccccc12)C(=O)N[C@@H](CC(C)C)C(=O)N[C@H](C(=O)N[C@@H](CCCNC(=N)N)C(=O)N[C@@H](CCC(N)=O)C(=O)N[C@@H](CCCNC(=N)N)C(=O)N[C@@H](Cc1ccc(O)cc1)C(N)=O)[C@@H](C)O)C(C)C)[C@@H](C)O [Compound 231, N{alpha-4}-(3-methylbutanoyl)-N{epsilon-7}-[2-(2-{2-[2-(2-{2-[(4S)-4-carboxy-4-(17-carboxyheptadecanamido)butanamido]ethoxy}ethoxy)acetamido]ethoxy}ethoxy)acetamido]-[4A,7K,9E,13T,18Q,19K,22V,28Y,30W,31L]hPYY (4-36)] | > 5000 |  | > 5000 | > 5000 | 1.96 |  |  | 0.107 |
